Test results published in patent US10675360B2 (MADRIGAL PHARMACEUTICALS, INC., priority 2014, dated 2020).

Tests used:
[1] = Artificial membrane permeability assay (PAMPA); assay type: in vitro ADME; conditions: 5 h incubation, first table
Experimental: In order to test the ability SDC-TRAP molecules of the invention to enter cells, an artificial membrane permeability assay (“PAMPA”) was used. […] LC/MS was used in conjunction with PAMPA assays to determine the ability of the SDC-TRAP molecules of the invention to permeate cells.
Pre-coated PAMPA plates were warmed to room temperature for at least 30 minutes prior to adding assay components.
Stock solutions were prepared with the SDC-TRAP molecules to be tested. In order to make a working solution, either 50 μL of 100 μM Stock in DMSO+950 μL of PBS or 50 μL of 200 μM stock was added to 96 deep well plate, resulting in a 5 μM final concentration or a 10 μM final concentration, respectively. 300 μL of the working solution containing each compound to be tested was added to the appropriate well of a donor PAMPA plate. 200 μL of PBS was added into the corresponding wells of an acceptor PAMPA plates.
The acceptor plate was lowered onto the donor plate and allowed to incubate for five hours. After five hours, a 50 μL aliquot was removed from each well of each plate and added into a new 96 deep-well plate.
100 μL of methanol containing an internal standard was added to each aliquot and analyzed by LC/MS. The internal standard was 150 ng/ml SDC-TRAP-0002.
In order to calculate the permeability for each SDC-TRAP molecule and the control molecules, the following formula was used:

[2] = Stability in mouse plasma; assay type: in vitro ADME; conditions: for Mouse (10 μM) % Remaining 1 h (37° C.) §: § not explained; for % Remaining: 1 h
H 3211 NSLC cells = experiment: IC50 of continuous and pulsed exposure to SDC-TRAPs; assay type: cell-based; conditions: 72 h, read-out: IC50, 72 h-continuous, H 3211 NSLC cells, 7.5 × 10^3 cells/well; 1st of 3 columns
[3] = Stability in cell culture media; conditions: § not explained
Experimental: 98 μL of DMEM+10% FBS, +1% P/S, +1.5 g/L sodium bicarbonate cell culture media was mixed with 2 μL of DMSO and aliquotted into 96-well plates at 250 μL per 0, 1, 2, and 18 hour time point.
3×50 μL media samples in 96 were held in 96-well plates at −80° C. until the last time point was extracted. 200 μL of methanol containing IS was added and mixed by vortex at 1500 rpm for 1.5 minutes at room temperature. The samples were centrifuged at 4400 rpm for 10 minutes at 8° C.

[4] = Tissue distribution of SDC-TRAPs in tumor-bearing mice (plasma, tumor, heart); conditions: mouse, in vivo
Experimental: Using the 10 mM stock solutions of the SDC-TRAP molecule and its Hsp90i binding moiety and effector moiety in DMSO, spiking solutions were prepared at 0.025, 0.05, 0.1, 0.5, 1, 5, 10, 50, 100, 250, and 500 μM in DMSO. 5 μL of each spiking solution was added to a 96-deep well plate.
Quality control standards were prepared from 5 μL of 0.1, 1, and 10 μM calibration standard spiking solution added in triplicate into 96-deep well plate and adding 50 μL of matrix (plasma or homogenized tumor).
To prepare test samples, test plasma was diluted as needed using blank plasma. Tumor samples were pulverized in liquid nitrogen, weighed, and homogenized in PBS at 5× volume to sample weight. 50 μL of unknown plasma or homogenized tumor sample was mixed with 5 μL of DMSO. The samples were extracted by precipitating calibration standards, QC standards, and unknown samples with 200 μL of internal standard solution. The samples were mixed by vortex at room temperature for approximately 1.5 minutes, then centrifuge at 2-8° C. 150 μL of supernatant was collected and 25 μL of water added. Samples were mixed and analyzed by LC-MS/MS.
Samples of plasma, heart and tumor were excised from a euthanized mouse, homogenized in PBS at 5 times tissue weight and diluted in 5 μL DMSO/50 μL sample. Prior to analysis, 55 μL samples and calibration standards were precipitated in 200 μL methanol in 96-well plates. Samples were mixed on a vortex mixer for 1.5 minutes at 1500 rpm at room temperature, then centrifuged at 4400 rpm for 10 minutes at 8° C. 150 μL of each supernatant was transferred to a well of a new 96-well plate, and 25 μL of water was added and mixed with the sample. […] For the analysis of samples from female SCID mice, a gradient of solvent A (water/0.1% formic acid) and B (acetonitrile/0.1% formic acid) was used as in Table A below.

Hsp90α = target: T1, Hsp90α (Homo sapiens, UniProt P07900); experiment: Hsp90α binding assay (fluorescence polarization, FITC-labeled geldanamycin)
T1 construct: purchased BPS Bioscience 50294
Experimental: An Hsp90^α fluorescence assay kit from BPS Bioscience (Cat #50294) containing Hsp90 recombinant enzyme, FITC-labeled geldanamycin, assay buffer and a low binding 384-well plate was used to assay Hsp90^α binding. Dithiothreitol (DTT) (Cat # D0643) and bovine serum albumin (BSA) (Cat # A2153) were obtained from Sigma-Aldrich. Fluorescence polarization was measured using a PHERAstar microplate reader (BMG LABTECH GmbH, Ortenberg, Germany.)
The compounds were diluted to 1 mM in DMSO and loaded into a compound dilution plate to make 3-fold dilutions yielding a total of 8 concentrations. 1 μL of compound was transferred from the dilution plate to the low binding assay plate provided in the assay kit. 5 mL of Hsp90^α binding solution was prepared having a final concentration of 7 ng/μL Hsp90^α, 5 nM FITC-labeled geldanamycin, 2 mM DTT and 0.1 mg/mL BSA. 49 μL of binding solution was added to each microplate well, incubated at room temperature for 1 hour, then read using the PHERAstar microplate reader. The high control sample contained no compound plus Hsp90^α; the low control sample contained no compound and no Hsp90^α. […] The IC50 was calculated using GraphPad Prism 4 software.

[5] = test system: MCF-7 breast cancer cells; experiment: Mouse xenograft efficacy in an MCF-7 breast cancer model; assay type: in vivo; conditions: FIG. 8
Experimental: MCF-7 breast cancer cells were purchased from ATCC. […] Fetal bovine serum was then added to the medium. The final concentration of fetal bovine serum was 10%. Cells were cultured at 37° C. and 5% CO2.
Mice that were not put on treatment were euthanized. Animals were sourced through CRL (Wilmington, Mass.).

| SMILES | Mouse (10 μM) % Remaining 1 h (37° C.) § ([2]; mouse plasma, 10 μM) [%] | % Remaining ([2]; mouse plasma, 37° C.) [%] | Media (5 μM) % Remaining 1 h (37° C.) § [3] [%] | EC50 (Hsp90α) [nM] | further results |
| --- | --- | --- | --- | --- | --- |
| CC(C)c1cc(-c2nnc(O)n2-c2ccc3c(ccn3CCNC(=O)CCCCCNC(=O)CCCC[C@H]3SCC4NC(=O)NC43)c2)c(O)cc1O (stereo in doubt) [SDC-TRAP-0234, N-(2-(5-(3-(2,4-dihydroxy-5-isopropylphenyl)-5-hydroxy-4H-1,2,4-triazol-4-yl)-1H-indol-1-yl)ethyl)-6-(5-((3aR,4R,6aS)-2-oxohexahydro-1H-thieno[3,4-d]imidazol-4-yl)pentanamido)hexanamide] |  |  |  |  | Papp at 5 h [1]: 0.0123 ×10⁻⁶ cm/s |
| CCc1c2c(nc3ccc(OC(=O)N(C)CCOCCn4ccc5cc(-n6c(O)nnc6-c6cc(C(C)C)c(O)cc6O)ccc54)cc13)-c1cc3c(c(=O)n1C2)COC(=O)C3(O)CC (stereo not drawn) [SDC-TRAP-0029, 4,11-diethyl-4-hydroxy-3,14-dioxo-3,4,12,14-tetrahydro-1H-pyrano[3′,4′:6,7]indolizino[1,2-b]quinolin-9-yl (2-(2-(5-(3-(2,4-dihydroxy-5-isopropylphenyl)-5-hydroxy-4H-1,2,4-triazol-4-yl)-1H-indol-1-yl)ethoxy)ethyl)(methyl)carbamate] | 44 | 47 | 43 |  | IC50 (H 3211 NSLC cells): 79 nM |
| CCc1c2c(nc3ccc(OC(=O)N4CCN(Cc5ccc(-n6c(O)nnc6-c6cc(C(C)C)c(O)cc6O)cc5)CC4)cc13)-c1cc3c(c(=O)n1C2)COC(=O)C3(O)CC (stereo not drawn) [SDC-TRAP-0046, 4,11-diethyl-4-hydroxy-3,14-dioxo-3,4,12,14-tetrahydro-1H-pyrano[3′,4′:6,7]indolizino[1,2-b]quinolin-9-yl 4-(4-(3-(2,4-dihydroxy-5-isopropylphenyl)-5-hydroxy-4H-1,2,4-triazol-4-yl)benzyl)piperazine-1-carboxylate] | 50 | 52 | 62 |  |  |
| CCc1c2c(nc3ccc(OC(=O)N4CCC(CCn5ccc6cc(-n7c(O)nnc7-c7cc(C(C)C)c(O)cc7O)ccc65)CC4)cc13)-c1cc3c(c(=O)n1C2)COC(=O)[C@]3(O)CC [SDC-TRAP-0063, 4,11-diethyl-4-hydroxy-3,14-dioxo-3,4,12,14-tetrahydro-1H-pyrano[3′,4′:6,7]indolizino[1,2-b]quinolin-9-yl 4-(2-(5-(3-(2,4-dihydroxy-5-isopropylphenyl)-5-hydroxy-4H-1,2,4-triazol-4-yl)-1H-indol-1-yl)ethyl)piperidine-1-carboxylate] |  |  |  | 158 | % Remaining ([2]; mouse, plasma, 10 μM): 11.1%; Selective targeting of tumor [4]: selectively targets and accumulates in tumor cells; Suppression of increase in tumor volume, higher versus lower dose ([5]; 150 mg/kg/1×wk compared to 100 mg/kg/1×wk): appears to prolong the suppression of increase in tumor volume compared to a lower dose; Tumor growth suppression versus irinotecan alone or ganetespib plus irinotecan ([5]; 150 or 100 mg/kg/1×wk): greater tumor growth suppression than effector moiety irinotecan alone |
| CCc1c2c(nc3ccc(OC(=O)N(C)C4CCN(C(=O)CCn5ccc6cc(-n7c(O)nnc7-c7cc(C(C)C)c(O)cc7O)ccc65)CC4)cc13)-c1cc3c(c(=O)n1C2)COC(=O)C3(O)CC (stereo not drawn) [SDC-TRAP-0184, 4,11-diethyl-4-hydroxy-3,14-dioxo-3,4,12,14-tetrahydro-1H-pyrano[3′,4′:6,7]indolizino[1,2-b]quinolin-9-yl (1-(3-(5-(3-(2,4-dihydroxy-5-isopropylphenyl)-5-hydroxy-4H-1,2,4-triazol-4-yl)-1H-indol-1-yl)propanoyl)piperidin-4-yl)(methyl)carbamate] |  | 18.0 |  | 86.6 |  |
